This note sets out measurements from ChEMBL document CHEMBL1132617, “Diversity analysis of 14 156 molecules tested by the National Cancer Institute for anti-HIV activity using the quantitative structure-activity relational expert system MCASE” (J Med Chem, 1999).

Active and inactive are the calls of the source. The calls are words filed in the database; no cut-off is given here.

Sequence of Human immunodeficiency virus type 1 integrase (Human immunodeficiency virus 1) (Q7ZJM1 as listed by the source): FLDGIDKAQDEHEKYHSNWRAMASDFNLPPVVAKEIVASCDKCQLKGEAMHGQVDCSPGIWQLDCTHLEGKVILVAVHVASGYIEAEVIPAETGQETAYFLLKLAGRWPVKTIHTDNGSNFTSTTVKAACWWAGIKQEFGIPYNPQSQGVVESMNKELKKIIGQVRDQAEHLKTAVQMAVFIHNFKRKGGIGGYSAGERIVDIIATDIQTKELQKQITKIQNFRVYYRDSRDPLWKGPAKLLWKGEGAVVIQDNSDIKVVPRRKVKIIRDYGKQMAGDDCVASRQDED

In the first assay the target is Human immunodeficiency virus type 1 protease (Human immunodeficiency virus 1) (UniProt Q72874). Put plainly: Antiviral activity as inhibition of HIV protease; Inactive.
Turning to `O=C(O)C1Cc2cc3c(cc2C(O)C1CO)OCO3` (centres undefined), the outcome was inactive.

The subject of a further assay is Human immunodeficiency virus 1. Put plainly: HIV antiviral activity. The class given is functional.
With `C=C/C=C\C=C\C(=O)/C=C/C`, the Average activity is 51.

For `C=C/C=C/C=C/S(=O)(=O)/C=C/C`, the Average activity amounted to 51.

Turning to `C=C/C(=C\C)C(=O)N/C(C)=C/C`, the Average activity was 37.

For the compound `CCC1OC1C` (centres undefined), the Average activity is 56.

Take `C=CC(=C\C)/N=C(\C)S`: the Average activity was 60.

Regarding `CC(=O)NC(=O)N(C)C1CCC(N=[N+]=[N-])O1` (centres undefined), the Average activity was determined as 64.

`CCC(I)CC`: the Average activity came out at 56.

On to `C=C/C=C\C=C\[PH](=O)/C=C/C` (centres undefined), for which the Average activity came out at 51.

Take `CCC(Cl)CC`: the Average activity stood at 56.

Regarding `C=C/C=C\C=C\[S+]([O-])/C=C/C` (centres undefined), the Average activity came out at 51.

For `C=C/C(=C\C)NC(C)=O`, the Average activity turned out to be 60.

`CCC(F)CC` displayed an Average activity of 56.

The next assay addresses Human immunodeficiency virus type 1 reverse transcriptase (Human immunodeficiency virus 1) (UniProt Q72547). Put plainly: Antiviral activity as inhibition of HIV reverse transcriptase; Inactive.
As for `CC1C(=O)NC(=O)N(COCCO)C1Sc1cccc(O)c1` (centres undefined), the outcome was inactive.

A further assay concerns the target Human immunodeficiency virus type 1 integrase (Human immunodeficiency virus 1) (UniProt Q7ZJM1). Description: Antiviral activity as inhibition of HIV integrase; Inactive.
`O=c1c(O)c(-c2ccc(O)cc2)oc2cc(O)cc(O)c12`: the result was inactive.

The next assay addresses Human immunodeficiency virus type 1 reverse transcriptase (Human immunodeficiency virus 1) (UniProt Q72547). Description: Antiviral activity as inhibition of HIV reverse transcriptase; Active.
In the case of `CCOCN1C(=O)NC(=O)C(C)C1Sc1ccccc1` (centres undefined), the result was Active.

With `CCN1c2ccccc2C2NC=C(C)C2c2ccc(OC)cc21` (centres undefined), the result was Active.

The target of the next assay is Human immunodeficiency virus type 1 protease (Human immunodeficiency virus 1) (UniProt Q72874). Description: Antiviral activity as inhibition of HIV protease; Active.
Consider `CCCCCCc1cc2c(cc1O)CC(=O)C(C(c1ccccc1)C1COc3cc(O)c(CCCCCC)c(O)c3C1)=C2O` (centres undefined), for which the result was Active.

As to `O=C1C2=C(C(=O)c3ccccc31)C(O)(S(=O)(=O)O)C(O)(S(=O)(=O)O)C1N=CC=CC21` (centres undefined), the result was Active.
